{"source": "patent EP0475411B1", "about": "“Novel carbocyclic adenosine analogs useful as immunosuppressants” (Aventis Pharmaceuticals Inc., priority 1990, dated 1992)", "key": {"[1]": {"tested_on": "rat PMNs", "assay": "Inhibition of priming of rat PMN (PMA + rrIFN-γ or rHuIL-1), Superoxide Anion (O2-) assay", "format": "cell-based", "conditions": "PMA 200 ηg/mL, compound 0 to 1000 µM, superoxide anion readout", "method": "The rat air pouch model of inflammation was used to obtain rat PMNs using 25ηg/pouch of recombinant human interleukin-1 (rHuIL-1) to elicit the cells essentially according to the method of Esser et al. [Internat. J. Tissue Reactions XI, 291 (1989)]. PMNs were incubated along with phorbol myristate acetate (PMA)(200ηg/mL), which acts as a soluble stimulus, and rrIFN-γ (1000 Units/mL), which acts as a stimulatory lymphokine, or rHuIL-1 (500 Units/mL), which acts as a stimulatory cytokine, in the presence of various concentrations of (1S,3R)-Cis-1(9-adenyl)-3-hydroxycyclopentane (0 to 1000 µM). The degree of macrophage priming was measured using the Superoxide Anion (O2-) assay as described by Edwards et al. [Science 239, 769 (1988)]."}, "[2]": {"tested_on": "Rat peritoneal macrophages", "assay": "Inhibition of priming of rat peritoneal macrophages (opsonized zymosan + rrIFN-γ), Superoxide Anion (O2-) assay", "format": "cell-based", "conditions": "opsonized zymosan 3 mg/mL, rrIFN-γ 1000 Units/mL; compound 0 to 1000 µM; superoxide anion readout; read-out: IC50 (inhibits the priming of rat macrophages in vitro)", "method": "Rat peritoneal macrophages were isolated and grown in cell culture essentially as described by Edwards et al. [Science 239, 769 (1988)]. Macrophages were incubated along with opsonized zymosan (3 mg/mL), which acts as a particulate stimulus, and recombinant rat γ-interferon (rrIFN-y)(1000Units/mL), which acts as an activating lymphokine, in the presence of various concentrations of (1S,3R)-Cis-l(9-adenyl)-3-hydroxycyclopentane (0 to 1000µM). The degree of macrophage priming was measured using the Superoxide Anion (O2-) assay as described by Edwards et al. [Science 239, 769 (1988)]."}}, "note": "Counter-ions that a name gives are not always drawn. Like-named read-outs stand apart in the source and are kept apart here."}
{"molecule": "Nc1ncnc2c1ncn2[C@H]1CC[C@@H](O)C1", "note": "[(1S,3R)-Cis-1-(9-adenyl)-3-hydroxycyclopentane hydrochloride]", "values": [{"measurement": "IC50", "setting": "[1]; rHuIL-1 500 Units/mL, read-out: IC50 (inhibits the rHuIL-1 priming of rat PMN in vitro)", "value": 1, "unit": "nM"}, {"measurement": "IC50", "setting": "[1]; rrIFN-γ 1000 Units/mL, read-out: IC50 (inhibits the rrIFN-γ priming of rat PMN in vitro)", "value": 1, "unit": "nM"}]}
{"molecule": "(1S,3R)-Cis-l(9-adenyl)-3-hydroxy-4-cyclopentene", "values": [{"measurement": "IC50", "setting": "[2]", "value": 2500, "unit": "nM"}]}
